From publication PMC5298231, “The Malaria Parasite's Lactate Transporter PfFNT Is the Target of Antiplasmodial Compounds Identified in Whole Cell Phenotypic Screens” (PLoS Pathogens, 2017)
Like-named read-outs stand apart in the source and are kept apart here.

System: erythrocytes infected with 3D7 trophozoites
Assay type: cell-based, Plasmodium falciparum

COc1ccc2c(c1)OC(O)(C(F)(F)C(F)(F)F)CC2=O (centres unmarked) [MMV007839]
NADP+, Average (3hr): -0.3346
Ornithine, Average (3hr): -0.1015
Orotate, Average (3hr): -1.466
Orotidine 5-Phosphate, Average (3hr): -1.489
Orotidine, Average (3hr): -1.057
PAEF, Average (3hr): -1.307
PD, Average (3hr): 0.2119
PDAV, Average (3hr): 0.3685
PE, Average (3hr): 0.9141
PEE, Average (3hr): -0.2135
PHF, Average (3hr): 0.05129
PPVQ, Average (3hr): -0.3492
PVNF, Average (3hr): -0.8559
PVQ, Average (3hr): 0.3164
PVQA, Average (3hr): -1.408
Pantothenate, Average (3hr): -0.2954
Phenylalanine, Average (3hr): -0.1326
Phosphoenolpyruvate, Average (3hr): 0.2604
Pipecolate, Average (3hr): 0.1041
Proline, Average (3hr): -0.09895
Pyridoxine, Average (3hr): -0.07403
Pyruvate, Average (3hr): 1.858
Ribose-5-Phosphate, Average (3hr): 0.8813
S-Adenosyl-L-homocysteine, Average (3hr): -0.314
SDGLA, Average (3hr): -0.3844
SFGD, Average (3hr): -0.2955
Sedoheptulose-1/7-Phosphate, Average (3hr): 0.2199
Serine, Average (3hr): 0.166
Succinate Semialdehyde, Average (3hr): -0.7119
Succinate, Average (3hr): -0.2462
TNVK, Average (3hr): -1.745
Threonine, Average (3hr): 0.01502
Tryptophan, Average (3hr): -0.2359
Tyrosine, Average (3hr): -0.01653
UDP, Average (3hr): -0.7159
UDP-N-acetyl-D-glucosamine, Average (3hr): 0.05247
UDP-glucose, Average (3hr): -0.07837
UMP, Average (3hr): -0.2624
Uracil, Average (3hr): -0.6081
Valine, Average (3hr): -0.194
Xanthine, Average (3hr): -0.464
dADP, Average (3hr): -1.193
dATP, Average (3hr): -0.03116
dCDP, Average (3hr): 0.3315
dGMP, Average (3hr): 0.1661
dTMP, Average (3hr): 0.1316
dTTP, Average (3hr): -0.08156
dUMP, Average (3hr): 1.365
myo-Inositol, Average (3hr): -0.258
sn-Glycerol 3-Phosphate, Average (3hr): 1.559
sn-glycero-3-Phospho-1-inositol, Average (3hr): 0.1698
1-3 (2-3)-Bisphopshateglycerate, Average (6hr): 0.3636
2-Hydroxyglutarate, Average (6hr): -0.3824
2-Ketoglutarate, Average (6hr): -0.4713
3-Phoshoglycerate, Average (6hr): 0.02516
3-Phospho-serine, Average (6hr): -0.6364
4-Aminobutanoate, Average (6hr): 1.092
5-Phosphoribosyl-Pyrophosphate, Average (6hr): 0.556
6-Phosphogluconate, Average (6hr): -0.3794
ADP, Average (6hr): -0.3027
AMP, Average (6hr): -0.04039
ATLS, Average (6hr): -0.1601
ATP, Average (6hr): -0.3608
Acetyl-CoA, Average (6hr): -0.9886
Acetyl-L-alanine, Average (6hr): -0.3969
Adenine, Average (6hr): -0.7079
Arginine, Average (6hr): 0.2024
Asparagine, Average (6hr): 0.205
Aspartate, Average (6hr): -0.08675
CDP, Average (6hr): -0.2824
CDP-ethanolamine, Average (6hr): -0.09908
CMP, Average (6hr): 0.2839
CTP, Average (6hr): -0.5655
Cholesteryl sulfate, Average (6hr): -0.1903
Citrate, Average (6hr): -0.1627
CoA, Average (6hr): -0.6499
Cyclic AMP, Average (6hr): -1.349
Cytidine, Average (6hr): 0.1751
DALT, Average (6hr): 0.7209
DEVG, Average (6hr): -0.06216
DGLA, Average (6hr): 0.8365
DLS, Average (6hr): -0.1236
Deoxycytidine, Average (6hr): 1.626
Dihydroorotate, Average (6hr): -1.004
ESFG, Average (6hr): 0.5044
EVGG, Average (6hr): -0.2203
Erythrose 4-Phosphate, Average (6hr): -0.7036
FAD, Average (6hr): -0.616
FMN, Average (6hr): -0.6137
Farnesyl diphosphate, Average (6hr): -0.2783
Folate, Average (6hr): -0.4942
Fructose-1-6-Bisphosphate, Average (6hr): 0.3974
Fructose-6-Phosphate, Average (6hr): -0.1081
GDP, Average (6hr): -0.8963
GDP-mannose, Average (6hr): -1.076
GMP, Average (6hr): -0.8795
GTP, Average (6hr): -0.6956
Geranylgeranyl pyrophosphate, Average (6hr): -0.7121
Glucono-1-4-Lactone, Average (6hr): 2.219
Glucose-6-Phosphate, Average (6hr): -0.5083
Glutamate, Average (6hr): -0.02563
Glutamine, Average (6hr): 1.089
Glutathione Disulfide, Average (6hr): -0.1925
Glutathione, Average (6hr): -0.4326
Glyceraldehyde 3-Phosphate, Average (6hr): -1.148
Glycerone Phosphate, Average (6hr): -0.3794
HLD, Average (6hr): 0.5581
HVDD, Average (6hr): 0.02571
Histidine, Average (6hr): 1.263
Homoserine, Average (6hr): 0.6347
Hydroxy-L-proline, Average (6hr): -0.1227
Hypoxanthine, Average (6hr): 0.2056
IDP, Average (6hr): 0.2522
IMP, Average (6hr): -0.2109
Inosine, Average (6hr): 0.5174
Isoleucine, Average (6hr): 0.1143
LD, Average (6hr): 0.1248
Lactate, Average (6hr): 2.505
Leucine, Average (6hr): 0.06585
Lysine, Average (6hr): 1.1316
Malate, Average (6hr): -0.236
Mannitol, Average (6hr): -0.1109
Methionine, Average (6hr): -0.2224
Myristic acid, Average (6hr): -0.7184
N-Acetyl-glutamate, Average (6hr): -1.091
N-Carbamoyl-L-Aspartate, Average (6hr): -1.386
NAD+, Average (6hr): 0.1336
NADH, Average (6hr): -2.783
NADP+, Average (6hr): -0.3285
Ornithine, Average (6hr): -0.4177
Orotate, Average (6hr): -1.6355
Orotidine 5-Phosphate, Average (6hr): -1.249
Orotidine, Average (6hr): -0.6749
PAEF, Average (6hr): 0.8061
PD, Average (6hr): 1.197
PDAV, Average (6hr): 1.2
PE, Average (6hr): 1.699
PEE, Average (6hr): 1.042
PHF, Average (6hr): 0.9826
PPVQ, Average (6hr): -0.2514
PVNF, Average (6hr): 0.6194
PVQ, Average (6hr): 1.502
PVQA, Average (6hr): -0.1116
Pantothenate, Average (6hr): -0.4384
Phenylalanine, Average (6hr): 0.1437
Phosphoenolpyruvate, Average (6hr): 0.09862
Pipecolate, Average (6hr): 1.035
Proline, Average (6hr): 0.2232
Pyridoxine, Average (6hr): 0.219
Pyruvate, Average (6hr): 2.1785
Ribose-5-Phosphate, Average (6hr): 0.5462
S-Adenosyl-L-homocysteine, Average (6hr): -0.1116
SDGLA, Average (6hr): -0.7918
SFGD, Average (6hr): -0.1482
Sedoheptulose-1/7-Phosphate, Average (6hr): 0.1885
Serine, Average (6hr): 0.02139
Succinate Semialdehyde, Average (6hr): -0.438
Succinate, Average (6hr): 0.1816
TNVK, Average (6hr): -0.1213
Threonine, Average (6hr): 0.6908
Tryptophan, Average (6hr): -0.04867
Tyrosine, Average (6hr): 0.1841
UDP, Average (6hr): -0.5016
UDP-N-acetyl-D-glucosamine, Average (6hr): -0.184
UDP-glucose, Average (6hr): 0.0071
UMP, Average (6hr): -0.08541
Uracil, Average (6hr): -0.6376
Valine, Average (6hr): 0.1675
Xanthine, Average (6hr): -0.5471
dADP, Average (6hr): -0.4329
dATP, Average (6hr): 0.01926
dCDP, Average (6hr): 0.5589
dGMP, Average (6hr): -0.355
dTMP, Average (6hr): 0.4667
dTTP, Average (6hr): 0.06317
dUMP, Average (6hr): 1.053
myo-Inositol, Average (6hr): -0.254
sn-Glycerol 3-Phosphate, Average (6hr): 1.275
sn-glycero-3-Phospho-1-inositol, Average (6hr): 0.1242
1-3 (2-3)-diphopshateglycerate log2 ratio (+MMV007839/-MMV007839) (Av 1hr, 6 μM): 0.8283
2-Hydroxyglutarate log2 ratio (+MMV007839/-MMV007839) (Av 1hr, 6 μM): -0.2432
2-Ketoglutarate log2 ratio (+MMV007839/-MMV007839) (Av 1hr, 6 μM): -0.436
3-Phosho-D-glycerate log2 ratio (+MMV007839/-MMV007839) (Av 1hr, 6 μM): 0.004248
3-Phospho-serine log2 ratio (+MMV007839/-MMV007839) (Av 1hr, 6 μM): -0.2778
4-Aminobutanoate log2 ratio (+MMV007839/-MMV007839) (Av 1hr, 6 μM): 1.193
5-Phosphoribosyl-1-pyrophosphate log2 ratio (+MMV007839/-MMV007839) (Av 1hr, 6 μM): 0.3507
ADP log2 ratio (+MMV007839/-MMV007839) (Av 1hr, 6 μM): -0.09347
AMP log2 ratio (+MMV007839/-MMV007839) (Av 1hr, 6 μM): 0.1805
ATLS log2 ratio (+MMV007839/-MMV007839) (Av 1hr, 6 μM): 0.06136
ATP log2 ratio (+MMV007839/-MMV007839) (Av 1hr, 6 μM): -0.05715
Acetyl-CoA log2 ratio (+MMV007839/-MMV007839) (Av 1hr, 6 μM): -0.4647
Acetyl-L-alanine log2 ratio (+MMV007839/-MMV007839) (Av 1hr, 6 μM): 0.1907
Adenine log2 ratio (+MMV007839/-MMV007839) (Av 1hr, 6 μM): -0.6208
Arginine log2 ratio (+MMV007839/-MMV007839) (Av 1hr, 6 μM): 0.574
Asparagine log2 ratio (+MMV007839/-MMV007839) (Av 1hr, 6 μM): 0.04802
Aspartic Acid log2 ratio (+MMV007839/-MMV007839) (Av 1hr, 6 μM): 0.001665
CDP log2 ratio (+MMV007839/-MMV007839) (Av 1hr, 6 μM): -0.01089
CDP-ethanolamine log2 ratio (+MMV007839/-MMV007839) (Av 1hr, 6 μM): 0.2765
CMP log2 ratio (+MMV007839/-MMV007839) (Av 1hr, 6 μM): 0.1684
CTP log2 ratio (+MMV007839/-MMV007839) (Av 1hr, 6 μM): -0.2804
Cholesteryl sulfate log2 ratio (+MMV007839/-MMV007839) (Av 1hr, 6 μM): -0.2972
Citrate log2 ratio (+MMV007839/-MMV007839) (Av 1hr, 6 μM): -0.1229
CoA log2 ratio (+MMV007839/-MMV007839) (Av 1hr, 6 μM): -0.4384
Cyclic AMP log2 ratio (+MMV007839/-MMV007839) (Av 1hr, 6 μM): -0.8135
Cytidine log2 ratio (+MMV007839/-MMV007839) (Av 1hr, 6 μM): -0.7749
D-Glucono-1-4-lactone log2 ratio (+MMV007839/-MMV007839) (Av 1hr, 6 μM): 1.593
DALT log2 ratio (+MMV007839/-MMV007839) (Av 1hr, 6 μM): -0.5028
DEVG log2 ratio (+MMV007839/-MMV007839) (Av 1hr, 6 μM): 0.001555
DGLA log2 ratio (+MMV007839/-MMV007839) (Av 1hr, 6 μM): -0.4525
DLS log2 ratio (+MMV007839/-MMV007839) (Av 1hr, 6 μM): -0.423
Deoxycytidine log2 ratio (+MMV007839/-MMV007839) (Av 1hr, 6 μM): 1.92
Dihydroorotate log2 ratio (+MMV007839/-MMV007839) (Av 1hr, 6 μM): -0.5278
